According to patent US12473295B2, “Substituted straight chain spiro derivatives” (Janssen Pharmaceutica NV, priority 2019, dated 2025):
Counter-ions that a name gives are not always drawn.

Assays:
OCI-AML3 cells = assay: Proliferation assay (spheroid growth, 8 days), OCI-AML3; type: cell-based, human; settings: Homo sapiens, OCI-AML-3, […], OCI-AML3, 8 days
Procedure, shortened: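 Spheroid size on day 8, taken as live-cell imaging confluence, served as readout after 8-day compound exposure (0.3% DMSO, 37 °C, 5% CO2) in round-bottom low-attachment wells. Seeding was 200 cells for MOLM14 and OCI-AML3, 300 for KO-52. IC50 came from % effect versus DMSO and reference baseline, fitted with variable slope.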

[1] = Metabolic stability in mouse liver microsomes; type: in vitro ADME; settings: mouse liver microsomes 0.5 mg/mL, 1 μM test compound, pH 7.4; read-out: Mouse LM Clint
Procedure: (§1) 4) Metabolic Stability in Human/Mouse Liver Microsomes
(§2) The objective of this study is to measure in vitro metabolic stability of test compound(s) in human and mouse liver microsomes and provide quantitative information on the rate of metabolic turnover (i.e. determination of the apparent intrinsic clearance of test).
(§3) Test items were prepared at a stock concentration of 10 mM in DMSO. For determination of metabolic turnover, a final working solution was prepared by adding 2 μL of 10 mM DMSO stock solution for test compound or positive control compounds to 198 μL of acetonitrile (100 μM final concentration).
(§4) Incubations were performed as follows: First, liver microsomes were thawed on ice and a master solution containing liver microsomes in 100 mM PBS (phosphate-buffered saline) at pH 7.4 is prepared. Next, the liver microsomes solution was added to the incubation plates and 10 mM NADPH (Nicotinamide-adenine dinucleotide phosphate) was added (MW: 833.4 g/mol; Roche Diagnostics GmbH, Germany. Dissolved in phosphate buffer (100 mmol/L, pH 7.4)). The mixture was mixed for 10 seconds and pre-warmed in the incubation plate at 37° C. for 10 minutes. The metabolic reaction was initiated with the addition of 5 μL of the 100 μM working solution for test compound or positive control compounds to incubation plate (final test item concentration=1 μM). The reaction final mixture should contain 1 mM NADPH, 0.5 mg/mL microsomes protein and 1 μM test compound or positive control compound in 100 mM PBS at pH 7.4. The percentage of organic solvent in incubation mixture is 1% with DMSO ≤0.02%.
(§5) The reaction was quenched by transferring 50 μL of the incubated mixture at selected time points into the quenching plate containing 200 μL of cold methanol. After sampling of all the timepoints the quenching plate was centrifuged at 4000 rpm for 40 minutes to precipitate protein. A total of 90 μL of the supernatant was transferred to an analysis plate and ultra-pure H2O water is added into each well for LC/MS/MS analysis. All incubations and analysis were performed in duplicate.
(§6) All calculations were carried out using Microsoft Excel. The slope value, k, was determined by linear regression of the natural logarithm of the remaining percentage of the parent drug vs. incubation time curve.
(§7) The in vitro half-life (in vitro tin) was determined from the slope value: in vitro t1/2=−(0.693/k)
(§8) Conversion of the in vitro tin (in min) into the in vitro intrinsic clearance (in vitro CLint, in μL/min/mg proteins) was done using the following equation: […]

[2] = Metabolic stability in human liver microsomes; type: in vitro ADME; settings: human liver microsomes 0.5 mg/mL, 1 μM test compound, pH 7.4; read-out: Human LM Clint
Procedure: as §1, §2, §3, §4, §5, §6, §7, §8

MOLM14 cells = assay: Proliferation assay (spheroid growth, 8 days), MOLM14; type: cell-based, human; settings: Homo sapiens, MOLM-14, […], MOLM14, 8 days; read-out: spheroid assay_OneTime MOLM14 IC50;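 note: spheroid size read as confluence by live-cell imaging, compounds added at a range of concentrations with 0.3% DMSO, DMSO-treated wells = 0%, highest reference dose = low control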

Row | SMILES | IC50 (OCI-AML3 cells) [nM] | microsomal CLint at 1 μM [1] [µL/min/mg] | microsomal CLint at 1 μM [2] [µL/min/mg] | IC50 (MOLM14 cells) [nM]
1 | CC(C)[C@@H](CCC(C)(C)N)N1CC2(CCN(c3ncnnc3Oc3ccc(F)cc3-c3cncnc3C3CC3)C2)C1 (single isomer, unassigned) [Compound 37, (*R)-5-(6-(6-(2-(4-cyclopropylpyrimidin-5-yl)-4-fluorophenoxy)-1,2,4-triazin-5-yl)-2,6-diazaspiro[3.4]octan-2-yl)-2,6-dimethylheptan-2-amine] | 430 | < 7.5 | < 7.5 | 40
2 | COCCNCCC[C@H](C(C)C)N1CC2(CCN(c3ncnnc3Oc3ccc(F)cc3C(=O)N(C(C)C)C(C)C)C2)C1 (single isomer, unassigned) [Compound 99, (*R)-5-fluoro-N,N-isopropyl-2-((5-(2-(6-((2-methoxyethyl)amino)-2-methylhexan-3-yl)-2,6-diazaspiro[3.4]octan-6-yl)-1,2,4-triazin-6-yl)oxy)benzamide oxalate] | 82 | 13 | 27 | 8.5
3 | CCN(C(=O)c1cc(F)ccc1Oc1nncnc1N1CCC2(C1)CN([C@H](CCCN)C(C)C)C2)C(C)C [Compound 1, (R)-2-((5-(2-(6-amino-2-methylhexan-3-yl)-2,6-diazaspiro[3.4]octan-6-yl)-1,2,4-triazin-6-yl)oxy)-N-ethyl-5-fluoro-N-isopropylbenzamide formate] | 170 | 21 | < 7.5 | 230
4 | CCN(C(=O)c1cc(F)ccc1Oc1nncnc1N1CCC2(C1)CN([C@H](CCCNCC(OC)OC)C(C)C)C2)C(C)C.O=C(O)/C=C/C(=O)O [Compound 104, (R)-2-((5-(2-(6-((2,2-dimethoxyethyl)amino)-2-methylhexan-3-yl)-2,6-diazaspiro[3.4]octan-6-yl)-1,2,4-triazin-6-yl)oxy)-N-ethyl-5-fluoro-N-isopropylbenzamide fumarate] | 150 | < 7.5 | 19 | 6.7
5 | CCN(C(=O)c1cc(F)ccc1Oc1nncnc1N1CCC2(C1)CN([C@H](CCCN[C@H](C)COC)C(C)C)C2)C(C)C.O=C(O)/C=C/C(=O)O [Compound 112, N-ethyl-5-fluoro-N-isopropyl-2-(5(2-((R)-6-(((R)-1-methoxypropan-2-yl)amino)-2-methylhexan-3-yl)-2,6-diazaspiro[3.4]octan-6-yl)-1,2,4-triazin-6-yl)oxy)benzamide fumarate] | 81 | < 7.5 | 17 | 9.8

Further lines, results first:

Row | IC50 (OCI-AML3 cells) [nM] | microsomal CLint at 1 μM [1] [µL/min/mg] | microsomal CLint at 1 μM [2] [µL/min/mg] | IC50 (MOLM14 cells) [nM] | SMILES
6 | 42 | 15 | 26 | 14 | CCN(C(=O)c1cc(F)ccc1Oc1nncnc1N1CCC2(C1)CN([C@H](CCCNCCC(F)F)C(C)C)C2)C(C)C.O=C(O)/C=C/C(=O)O [Compound 114, (R)-2-(5-(2-(6-((3,3-difluoropropyl)amino)-2-methylhexan-3-yl)-2,6-diazaspiro[3.4]octan-6-yl)-1,2,4-triazin-6-yl)oxy)-N-ethyl-5-fluoro-N-isopropylbenzamide fumarate]
7 | 430 | < 7.5 | 18 | 73 | CCN(C(=O)c1cc(F)ccc1Oc1nncnc1N1CCC2(C1)CN([C@H](CCCN(C)CCNC(C)=O)C(C)C)C2)C(C)C.O=C(O)/C=C/C(=O)O [Compound 245, (R)-2-((5-(2-(6-((2-acetamidoethyl)(methyl)amino)-2-methylhexan-3-yl)-2,6-diazaspiro[3.4]octan-6-yl)-1,2,4-triazin-6-yl)oxy)-N-ethyl-5-fluoro-N-isopropylbenzamide fumarate]
8 | 380 |  |  | 60 | CCN(C(=O)c1cc(F)ccc1Oc1nncnc1N1CCC2(C1)CN([C@H](CCCN(C)CCC(=O)N(C)C)C(C)C)C2)C(C)C [Compound 246, (R)-2-((5-(2-(6-((3-(dimethylamino)-3-oxopropyl)(methyl)amino)-2-methylhexan-3-yl)-2,6-diazaspiro[3.4]octan-6-yl)-1,2,4-triazin-6-yl)oxy)-N-ethyl-5-fluoro-N-isopropylbenzamide formate]
